Data: US7371372B2, “Compositions comprising IMPDH inhibitors and uses thereof for treating HCV infection” (Vertex Pharmaceuticals Incorporated, priority 2004, dated 2008)
Converted amounts (≈) assume the structure as drawn. Like-named read-outs stand apart in the source and are kept apart here. Marks after values point to notes of the source that are not given here.

How the values were obtained:
[1] = anti-viral activity (IC50av); assay type: cell-based; settings: for IC50: read-out: IC50av
From the text: The ratio of IC50av/IC50ap is the Conversion Factor (“CV”), useful in converting an anti-proliferative response into an anti-viral response.

[2] = system: peripheral blood lymphocytes (PBLs); test: anti-proliferative activity (IC50ap): inhibition of proliferation of peripheral blood lymphocytes; assay type: cell-based; settings: for IC50: Lymphocyte
From the text: Our algorithm predicts that there exists an optimal balance between the antiproliferative activity and the antiviral activity for ribavirin in combination with IFN. […] Per our algorithm described above, a “conversion factor” of 12.25 needs to be applied to the APQ to account for antiviral effects as distinct from the antiproliferative effects of ribavirin. Thus the corrected APQ (i.e. AAQ) for ribavirin ranges from 0.3 to 1.6.

IMPDH = settings: estimated from Brunet et al.; cited from earlier work
[3] = cited from earlier work; for Cmin: estimated from Brunet et al.
HCV [4] = settings: 1000 mg BID with PEGASYS, cited from earlier work
[5] = plasma concentrations Cavg and Cmin of the IMPDH inhibitor in human; assay type: in vivo
From the text: An optimal composition according to the present invention comprises alpha-interferon or a derivative thereof, an IMPDH inhibitor and a pharmaceutical carrier, wherein said IMPDH inhibitor is present in said composition in an amount such that a ratio of Cavg/Cmin is between 1 to 10; • wherein: • Cavg is average steady-state plasma concentration produced by said IMPDH inhibitor in said human; and • Cmin is estimated trough concentration produced by said IMPDH inhibitor in said human.
Cavg is equal to AUC/T, wherein AUC is the area under the plasma concentration-time curve during a dosing interval of time T. Cavg and Cmin are readily determined by known techniques in the art. See, e.g., Gibaldi, M. and Perrier, D., Pharmacokinetics, 2nd Ed., Marcel Dekker, Inc. (1982); Khakoo, S. et al., Br. J. Clin. Pharmacol.46, pp. 563-570 (1998); Glue, P., Sem. Liver. Dis. 19, pp. 17-24 (1999).

HCV [6] = settings: cited from earlier work; for sustained response (SR): IFN + ribavirin, two phase III trials; for HCV RNA drop: Ribavirin 600 mg BID with INTRON A, SR data from McHutchison and Poynard (1999)
HCV [7] = test: Interferon alpha 2b (INTRON A) and VX-497 in naive HCV patients, four week study (VX-497-003); assay type: in vivo, human; settings: for % HCV RNA drop: genotype 1 naive patients
From the text: Given the lower FQ for RBV in table 2 above, once again a surprising result of lower FQ giving better antiviral effects is seen.

[8] = Ribavirin 200 mg BID, estimated from literature kinetics
[9] = Ribavirin 400 mg BID, estimated from literature kinetics

COc1c(C)c2c(c(O)c1C/C=C(\C)CCC(=O)O)C(=O)OC2 [MPA, mycophenolic acid]
IC50 ([1]; anti-viral activity, micromolar IC50 converted to ng/mL using molecular weight of 320): 0.122 µg/mL (≈ 0.381 µM) | IC50 ([2]; in vitro, read-out: IC50ap (ng/mL) in vitro): 32 ng/mL | IC50ap (ng/mL) in vivo (IMPDH): 10800 ng/mL (≈ 33.7 µM) | Cmin ([3]; MPA 500 mg BID): 1630 ng/mL | Cavg ([3]; MPA 500 mg BID, from Brunet et al.): 3163 ng/mL | Cmin ([3]; MPA 750 mg BID): 1400 ng/mL | Cavg ([3]; MPA 750 mg BID, from Brunet et al.): 3425 ng/mL | Cmin ([3]; MPA 1000 mg BID): 2060 ng/mL | Cavg ([3]; MPA 1000 mg BID, median AUC(0-t)/dosing interval from Brunet et al.): 3869 ng/mL | % HCV RNA drop (HCV [4]; non-responders to REBETRON with 90% genotype 1 patients): 31^a, % | % HCV RNA drop (HCV [4]; relapsers on REBETRON with 79% genotype 1 patients): 72^b %

NC(=O)c1ncn([C@@H]2O[C@H](CO)[C@@H](O)[C@H]2O)n1 [Ribavirin, ribavirin]
IC50 [1]: 12 µg/mL (≈ 49 µM) | Cavg [5, 8]: 3542 ng/mL | Cmin [5, 8]: 740 ng/mL | Cavg [5, 9]: 7083 ng/mL | Cmin [5, 9]: 1450 ng/mL | Cmin ([5]; Ribavirin 600 mg BID, estimated from literature kinetics): 2250 ng/mL | Cavg ([5]; Ribavirin 600 mg BID, estimated from single dose kinetics (Glue) and accumulation factor (Khakoo), AUC(0-t)/dosing interval): 19000 ng/mL | IC50 ([2]; read-out: IC50ap): 976 ng/mL | sustained response (SR) (HCV [6]; genotype 1 patients): around 30% | sustained response (SR) (HCV [6]; non-genotype 1 patients): ~60% | hemolytic anemia (HCV [6]; MTD of ribavirin): significant hemolytic anemia | HCV RNA drop (HCV [6]; genotype 1): 30%^a, | HCV RNA drop (HCV [6]; non-genotype 1): 60%^b | change in SR on dropping the ribavirin dose by one-half (HCV [6]; to 600 mg daily, with IFN): no significant change in SR

COc1cc(NC(=O)Nc2cccc(CNC(=O)O[C@H]3CCOC3)c2)ccc1-c1cnco1 [VX-497]
% HCV RNA drop (HCV [7]; VX-497 100 mg TID with INTRON A for 4 weeks): 53% | % HCV RNA drop (HCV [7]; VX-497 300 mg TID with INTRON A for 4 weeks): 50% | reduction in viral load, 100 mg TID compared with 300 mg TID (HCV [7]; with 3 MU IFN alpha 2b tiw, four weeks, baseline HCV RNA as covariate): higher reduction in viral load | IC50av ([1]; anti-viral activity, micromolar IC50 converted to ng/mL using molecular weight 452): 0.14 µg/mL (≈ 0.309 µM) | IC50ap [2]: 0.045 µg/mL

COc1c(C)c2c(c(O)c1C/C=C(\C)CCC(=O)OCCN1CCOCC1)C(=O)OC2 [mycophenolate mofetil]
proportion of patients achieving significant antiviral effects, compared to PEGASYS and RBV (HCV [4]; four-week analysis): lower proportion of patients achieving significant antiviral effects
